Experimental data: PubChem BioAssay AID1963837 (Molecular Pharmacology Branch, DTP, NCI, 2024)
pIC50: −log10 of the molar value.

Test system: 843126-344-R-J1-PDC complex spheroid viability
Experiment: Anticancer human tumor 843126-344-R-J1-PDC patient-derived melanoma cell line growth inhibition [POLQ]
Conditions: for pIC50: curve of first compound; for viability, T/C: stronger effect = lower value; active means viability on the fitted dose curve at most 10% of control; inactive means the rest
Summary of the method: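 Complex spheroid viability model combining PDC tumour cells with endothelial (HUVEC) and MSC stromal cells. Novobiocin, ART-558 or RP6685 were tested singly and in combination with standard and investigational anticancer drugs. Each was titrated in half-log steps from near clinical Cmax, or from 10 microM where Cmax was unknown.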

[1] = second compound 0.0316 µM, first compound 0.0316 µM
[2] = second compound 0.0316 µM, first compound 0.1 µM
[3] = second compound 0.0316 µM, first compound 0.316 µM
[4] = second compound 0.0316 µM, first compound 1 µM
[5] = second compound 0.0316 µM, first compound 3.16 µM
[6] = second compound 0.0316 µM, first compound 10 µM
[7] = second compound 0.1 µM, first compound 0.0316 µM
[8] = second compound 0.1 µM, first compound 0.1 µM
[9] = second compound 0.1 µM, first compound 0.316 µM
[10] = second compound 0.1 µM, first compound 1 µM
[11] = second compound 0.1 µM, first compound 3.16 µM
[12] = second compound 0.1 µM, first compound 10 µM
[13] = second compound 0.316 µM, first compound 0.0316 µM
[14] = second compound 0.316 µM, first compound 0.1 µM
[15] = second compound 0.316 µM, first compound 0.316 µM
[16] = second compound 0.316 µM, first compound 1 µM
[17] = second compound 0.316 µM, first compound 3.16 µM
[18] = second compound 0.316 µM, first compound 10 µM
[19] = second compound 1 µM, first compound 0.0316 µM
[20] = second compound 1 µM, first compound 0.1 µM
[21] = second compound 1 µM, first compound 0.316 µM
[22] = second compound 1 µM, first compound 1 µM
[23] = second compound 1 µM, first compound 3.16 µM
[24] = second compound 1 µM, first compound 10 µM
[25] = second compound 3.16 µM, first compound 0.0316 µM
[26] = second compound 3.16 µM, first compound 0.1 µM
[27] = second compound 3.16 µM, first compound 0.316 µM
[28] = second compound 3.16 µM, first compound 1 µM
[29] = second compound 3.16 µM, first compound 3.16 µM
[30] = second compound 3.16 µM, first compound 10 µM
[31] = second compound 10 µM, first compound 0.0316 µM
[32] = second compound 10 µM, first compound 0.1 µM
[33] = second compound 10 µM, first compound 0.316 µM
[34] = second compound 10 µM, first compound 1 µM
[35] = second compound 10 µM, first compound 3.16 µM
[36] = second compound 10 µM, first compound 10 µM
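Wherever viability, T/C is given: spheroids exposed to drugs for seven days before readout.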

CCCS(=O)(=O)Nc1ccc(F)c(C(=O)c2c[nH]c3ncc(-c4ccc(Cl)cc4)cc23)c1F + Nc1ccc(C#CCN(C(=O)Cc2ncc(C(F)(F)F)cc2C(F)(F)F)c2ccc(F)cc2)nn1
< 5.00: pIC50 (second compound 0.0316 µM) | pIC50 (second compound 0.1 µM) | pIC50 (second compound 0.316 µM) | pIC50 (second compound 1 µM) | pIC50 (second compound 3.16 µM) | pIC50 (second compound 10 µM)
inactive: viability, T/C [1] 86% | viability, T/C [2] 92.7% | viability, T/C [3] 98.9% | viability, T/C [4] 77.9% | viability, T/C [5] 77.5% | viability, T/C [6] 86.7% | viability, T/C [7] 82% | viability, T/C [8] 91.8% | viability, T/C [9] 82.8% | viability, T/C [10] 82.3% | viability, T/C [11] 78.1% | viability, T/C [12] 57.4% | viability, T/C [13] 85.8% | viability, T/C [14] 92.8% | viability, T/C [15] 88.9% | viability, T/C [16] 87.4% | viability, T/C [17] 77.5% | viability, T/C [18] 82% | viability, T/C [19] 93.5% | viability, T/C [20] 91.8% | viability, T/C [21] 71% | viability, T/C [22] 85.5% | viability, T/C [23] 77.2% | viability, T/C [24] 76.2% | viability, T/C [25] 86.4% | viability, T/C [26] 105% | viability, T/C [27] 95.2% | viability, T/C [28] 78% | viability, T/C [29] 62.7% | viability, T/C [30] 63.4% | viability, T/C [31] 93.3% | viability, T/C [32] 79.9% | viability, T/C [33] 79.7% | viability, T/C [34] 82.3% | viability, T/C [35] 74% | viability, T/C [36] 75.4%

CNCc1ccc(-c2[nH]c3cc(F)cc4c3c2CCNC4=O)cc1 + Cc1cccc(N(C)C(=O)C2C(O)CCN2c2nc(C)cc(C(F)(F)F)c2C#N)c1
< 5.00: pIC50 (second compound 0.0316 µM) | pIC50 (second compound 0.1 µM) | pIC50 (second compound 0.316 µM) | pIC50 (second compound 1 µM) | pIC50 (second compound 3.16 µM) | pIC50 (second compound 10 µM)
inactive: viability, T/C [1] 76.6% | viability, T/C [2] 84.1% | viability, T/C [3] 75.3% | viability, T/C [4] 91% | viability, T/C [5] 79.4% | viability, T/C [6] 79.2% | viability, T/C [7] 84.7% | viability, T/C [8] 77% | viability, T/C [9] 95.7% | viability, T/C [10] 73.5% | viability, T/C [11] 87.3% | viability, T/C [12] 64.5% | viability, T/C [13] 85.3% | viability, T/C [14] 98% | viability, T/C [15] 82.6% | viability, T/C [16] 90.2% | viability, T/C [17] 77.3% | viability, T/C [18] 69.7% | viability, T/C [19] 68.9% | viability, T/C [20] 87.2% | viability, T/C [21] 95.7% | viability, T/C [22] 82.4% | viability, T/C [23] 94.6% | viability, T/C [24] 64.3% | viability, T/C [25] 79.8% | viability, T/C [26] 83.4% | viability, T/C [27] 83.6% | viability, T/C [28] 85.2% | viability, T/C [29] 87.5% | viability, T/C [30] 72.9% | viability, T/C [31] 82.5% | viability, T/C [32] 76.9% | viability, T/C [33] 76.9% | viability, T/C [34] 90.5% | viability, T/C [35] 88.3% | viability, T/C [36] 74.9%

O=C(Nc1ccc(O)c(NS(=O)(=O)c2ccc(F)cc2)c1)c1ccc(-c2ccccc2)cc1 + COC1C(OC(N)=O)C(O)C(Oc2ccc3c(O)c(NC(=O)c4ccc(O)c(CC=C(C)C)c4)c(=O)oc3c2C)OC1(C)C
< 5.00: pIC50 (second compound 0.0316 µM) | pIC50 (second compound 0.1 µM) | pIC50 (second compound 0.316 µM) | pIC50 (second compound 1 µM) | pIC50 (second compound 3.16 µM) | pIC50 (second compound 10 µM)
inactive: viability, T/C [1] 118% | viability, T/C [2] 105% | viability, T/C [3] 100% | viability, T/C [4] 119% | viability, T/C [5] 99% | viability, T/C [6] 69.4% | viability, T/C [7] 94.3% | viability, T/C [8] 93.8% | viability, T/C [9] 119% | viability, T/C [10] 99.6% | viability, T/C [11] 87.9% | viability, T/C [12] 61.9% | viability, T/C [13] 92.8% | viability, T/C [14] 98.3% | viability, T/C [15] 113% | viability, T/C [16] 95.5% | viability, T/C [17] 91.8% | viability, T/C [18] 73.1% | viability, T/C [19] 90.9% | viability, T/C [20] 85.3% | viability, T/C [21] 91.9% | viability, T/C [22] 98.9% | viability, T/C [23] 112% | viability, T/C [24] 89.3% | viability, T/C [25] 95.5% | viability, T/C [26] 93.9% | viability, T/C [27] 92.9% | viability, T/C [28] 93.8% | viability, T/C [29] 89.4% | viability, T/C [30] 76.3% | viability, T/C [31] 82.6% | viability, T/C [32] 78.8% | viability, T/C [33] 97.1% | viability, T/C [34] 94.5% | viability, T/C [35] 86.8% | viability, T/C [36] 79.7%

C=CC(=O)N1CCN(c2nc(=O)n(-c3c(C)ccnc3C(C)C)c3nc(-c4c(O)cccc4F)c(F)cc23)C(C)C1 (stereo not drawn) + COC1C(OC(N)=O)C(O)C(Oc2ccc3c(O)c(NC(=O)c4ccc(O)c(CC=C(C)C)c4)c(=O)oc3c2C)OC1(C)C
< 5.00: pIC50 (second compound 0.0316 µM) | pIC50 (second compound 0.1 µM) | pIC50 (second compound 0.316 µM) | pIC50 (second compound 1 µM) | pIC50 (second compound 3.16 µM) | pIC50 (second compound 10 µM)
inactive: viability, T/C [1] 98.3% | viability, T/C [2] 100% | viability, T/C [3] 97.4% | viability, T/C [4] 89% | viability, T/C [5] 94.9% | viability, T/C [6] 71.4% | viability, T/C [7] 110% | viability, T/C [8] 108% | viability, T/C [9] 101% | viability, T/C [10] 113% | viability, T/C [11] 92.8% | viability, T/C [12] 80.5% | viability, T/C [13] 88.7% | viability, T/C [14] 111% | viability, T/C [15] 103% | viability, T/C [16] 85% | viability, T/C [17] 101% | viability, T/C [18] 78.6% | viability, T/C [19] 99.8% | viability, T/C [20] 95% | viability, T/C [21] 104% | viability, T/C [22] 108% | viability, T/C [23] 114% | viability, T/C [24] 68% | viability, T/C [25] 107% | viability, T/C [26] 74.1% | viability, T/C [27] 105% | viability, T/C [28] 113% | viability, T/C [29] 97.7% | viability, T/C [30] 77.7% | viability, T/C [31] 82.7% | viability, T/C [32] 107% | viability, T/C [33] 92.9% | viability, T/C [34] 98.3% | viability, T/C [35] 104% | viability, T/C [36] 83.5%
